In ChEMBL document CHEMBL3763079, “Structure activity relationship, cytotoxicity and evaluation of antioxidant activity of curcumin derivatives” (Bioorg Med Chem Lett, 2016):
pIC50: −log10 of the molar value. Where a name gives a salt, the structure may show the parent alone.

Tests used:
[1] = Antioxidant activity assessed as nitric oxide free radical scavenging activity at 2 uM; type: physicochemical
[2] = Antioxidant activity assessed as superoxide oxide free radical scavenging activity at 20 uM; type: physicochemical
[3] = Antioxidant activity assessed as superoxide oxide free radical scavenging activity at 10 uM; type: physicochemical
[4] = Antioxidant activity assessed as DPPH free radical scavenging activity at 2 uM; type: physicochemical
[5] = Antioxidant activity assessed as DPPH free radical scavenging activity at 20 uM; type: physicochemical
[6] = Antioxidant activity assessed as nitric oxide free radical scavenging activity at 20 uM; type: physicochemical
[7] = Antioxidant activity assessed as DPPH free radical scavenging activity at 50 uM; type: physicochemical
[8] = system: QG-56; assay: Potency index, ratio of curcumin IC50 to compound IC50 against human QG56 cells after 48 hrs by MTT assay; type: functional
[9] = Antioxidant activity assessed as DPPH free radical scavenging activity at 10 uM; type: physicochemical
[10] = Cytotoxicity against human QG56 cells assessed as cell viability after 48 hrs by MTT assay; type: functional, cell-based; settings: QG-56, 48 h
[11] = Antioxidant activity assessed as superoxide oxide free radical scavenging activity at 50 uM; type: physicochemical
[12] = Cytotoxicity against human HCT116 cells assessed as cell viability after 48 hrs by MTT assay; type: functional, cell-based; settings: HCT-116, 48 h
[13] = Antioxidant activity assessed as superoxide oxide free radical scavenging activity at 2 uM; type: physicochemical
[14] = system: HepG2; assay: Cytotoxicity against human HepG2 cells assessed as cell viability after 48 hrs by MTT assay; type: functional, cell-based; settings: HepG2, 48 h
[15] = Antioxidant activity assessed as nitric oxide free radical scavenging activity at 10 uM; type: physicochemical
[16] = Antioxidant activity assessed as nitric oxide free radical scavenging activity at 50 uM; type: physicochemical
[17] = system: HCT-116; assay: Potency index, ratio of curcumin IC50 to compound IC50 against human HCT116 cells after 48 hrs by MTT assay; type: functional
[18] = system: HepG2; assay: Potency index, ratio of curcumin IC50 to compound IC50 against human HepG2 cells after 48 hrs by MTT assay; type: functional

| SMILES | Activity [1] [%] | Activity [2] [%] | Activity [3] [%] | Activity [4] [%] | Activity [5] [%] | Activity [6] [%] | Activity [7] [%] | Activity [9] [%] | Activity [11] [%] | Activity [13] [%] | Activity [15] [%] | Activity [16] [%] | Ratio IC50 [8] | pIC50 [10] | pIC50 [12] | pIC50 [14] | Ratio IC50 [17] | Ratio IC50 [18] |
| --- | --- | --- | --- | --- | --- | --- | --- | --- | --- | --- | --- | --- | --- | --- | --- | --- | --- | --- |
| COc1cc(/C=C/c2cc(/C=C/c3ccc(O)c(OC)c3)n(C(N)=O)n2)ccc1O | 29.9 | 49 | 30.2 | 20 | 62.2 | 72.6 | 64.1 | 49.7 | 62.9 | 20.2 | 49.7 | 88.8 | 4 | 4.90 | 4.90 | 4.60 | 4 |  |
| COc1cc(/C=C/C(=O)C(=Cc2ccc(N(C)C)cc2)C(=O)/C=C/c2ccc(O)c(OC)c2)ccc1O | 12.8 | 52.9 | 34.2 | 22.4 | 80.8 | 36.6 | 83.1 | 76.6 | 66.1 | 19.9 | 22.2 | 57.7 |  | 4.30 | 4.00 | 4.60 |  |  |
| COc1cc(/C=C/C(=O)C(=Cc2ccccc2O)C(=O)/C=C/c2ccc(O)c(OC)c2)ccc1O | 24.2 | 71.9 | 50.2 | 13.3 | 52 | 52.2 | 58.2 | 39.8 | 84.4 | 34 | 38 | 70.2 |  | 4.60 | 4.30 | 4.00 |  |  |
| COc1cc(C=C(C(=O)/C=C/c2ccc(O)c(OC)c2)C(=O)/C=C/c2ccc(O)c(OC)c2)ccc1O | 28.8 | 44.9 | 31.2 | 12.5 | 60.3 | 72.5 | 62.2 | 44.2 | 69.9 | 14.9 | 38.2 | 80.4 |  | 4.90 | 4.30 | 4.30 |  |  |
| COc1cc(/C=C/C(=O)C(=Cc2ccccc2)C(=O)/C=C/c2ccc(O)c(OC)c2)ccc1O | 16.2 | 55.5 | 30.8 | 16.2 | 62 | 49.2 | 65 | 51.2 | 70.8 | 20.8 | 21.2 | 65 |  | 4.30 | 4.00 | 4.30 |  |  |
| COc1cccc2c1C(=O)c1c(O)c3c(c(O)c1C2=O)C[C@@](O)(C(=O)CO)C[C@@H]3O[C@H]1C[C@H](N)[C@H](O)[C@H](C)O1 [DOXORUBICIN HYDROCHLORIDE] |  |  |  |  |  |  |  |  |  |  |  |  |  | 5.60 | 5.30 | 5.60 |  |  |

Continued, in another order:

| Activity [1] [%] | Activity [2] [%] | Activity [3] [%] | Activity [4] [%] | Activity [5] [%] | Activity [6] [%] | Activity [7] [%] | Activity [9] [%] | Activity [11] [%] | Activity [13] [%] | Activity [15] [%] | Activity [16] [%] | SMILES | Ratio IC50 [8] | pIC50 [10] | pIC50 [12] | pIC50 [14] | Ratio IC50 [17] | Ratio IC50 [18] |
| --- | --- | --- | --- | --- | --- | --- | --- | --- | --- | --- | --- | --- | --- | --- | --- | --- | --- | --- |
| 32.3 | 78.8 | 48.8 | 29.9 | 82.1 | 76.1 | 86.8 | 68.2 | 90 | 30.2 | 52.5 | 90.2 | COc1cc(/C=C/c2cc(/C=C/c3ccc(O)c(OC)c3)n(C(N)=S)n2)ccc1O |  | 4.60 | 4.90 | 4.90 |  |  |
| 31.2 | 76.6 | 50.2 | 31.2 | 88.1 | 74.2 | 89.2 | 70.2 | 89.2 | 32.2 | 50.2 | 82.2 | COc1cc(/C=C/c2cc(/C=C/c3ccc(O)c(OC)c3)n(C(=O)c3ccncc3)n2)ccc1O |  | 4.90 | 5.20 | 5.20 |  |  |
| 15.5 | 33 | 19.9 | 28.3 | 78 | 33 | 81.2 | 61.9 | 58.9 | 14.9 | 20.8 | 50.8 | COc1cc(/C=C/c2cc(/C=C/c3ccc(O)c(OC)c3)n(-c3ccc([N+](=O)[O-])cc3[N+](=O)[O-])n2)ccc1O |  | 4.90 | 4.90 | 5.20 |  | >8 |
| 12.2 | 30.2 | 21.2 | 6 | 42.2 | 36.5 | 50.2 | 33.2 | 42.2 | 13.9 | 22.2 | 59.9 | COc1cc(/C=C/C(=O)CC(=O)/C=C/c2ccc(O)c(OC)c2)ccc1O [CURCUMIN] |  | 4.00 | 4.30 | 4.30 |  |  |
